Source: ChEMBL document CHEMBL1153882, “Prediction of convulsant activity of gases and vapors” (2009)

Organism: Rattus norvegicus
Assay: Convulsant activity in Sprague-Dawley rat assessed as partial pressure in atmosphere at which convulsion takes place
Format: functional

Point of comparison: FC(F)(Br)C(F)(F)C(F)(F)C(F)(F)Br, “log(1/CON)” value 1.86. Against it:
- FC1(F)C(F)(F)C(F)(Cl)C1(F)Cl (racemic) — lower, 1.26
- C1CCCCCCC1 [CYCLOOCTANE] — higher, 2.82
- FC1(F)C(F)(F)[C@@](F)(Cl)[C@@]1(F)Cl — lower, 1.41
- FC(F)(Cl)C(F)(Cl)Cl — lower, 1.36
- FC(F)OC(F)(Cl)C(F)(F)F (centres undefined) — lower, 0.84
- FC(C(F)C(F)(F)C(F)(F)C(F)(F)F)C(F)(F)F (centres undefined) — higher, 2.31
- C1CCCCC1 [CYCLOHEXANE] — lower, 1.66
- FC(F)(F)COC(F)(F)Cl — lower, 1.63
- FC(F)(F)C(F)(F)Cl [CHLOROPENTAFLUOROETHANE] — lower, -0.32
- FC(Cl)(Cl)OC(F)(F)C(F)(F)Cl — lower, 1.36
- CCCCCCCC [OCTANE] — higher, 2.18
- FC(F)C(F)(F)C(F)(F)C(F)(F)C(F)(F)C(F)(F)Br — within 0.2 log units, 1.68
- FC1(F)C(F)(F)C(F)(F)C1(F)F [PERFLUOROCYCLOBUTANE] — lower, 0.01
- FC(F)(Cl)OC(F)(F)C(F)(F)Cl — lower, 0.68
- FC(F)(Cl)C(F)(Cl)C(F)(F)Cl — lower, 1.31
- FC(F)(Cl)OC(F)(F)C(F)(Cl)Cl — lower, 1.52
- FCOC(F)(F)C(C(F)(F)F)C(F)(F)F — lower, 1.43
- FC(F)(Cl)C(F)(Cl)C(F)(Cl)C(F)(F)Cl (centres undefined) — higher, 2.52
- COC(F)(F)C(F)(F)C(F)(F)C(F)(F)F — lower, 0.67
- CCCCC [PENTANE] — lower, 1.16
- Fc1ccc(F)cc1 — higher, 2.22
- FC(F)(F)C(F)(Br)C(F)(F)F — lower, 0.13
- FC(F)(F)C(F)(Cl)C(F)(F)F — lower, -0.26
- CC(F)(F)C(F)(F)F — lower, 0.02
- FC(F)(F)C(F)(F)C(F)(F)F [PERFLUTREN] — lower, -0.88
- FC1(F)C(F)(F)[C@@](F)(Cl)[C@]1(F)Cl (relative stereo) — lower, 1.19
- FC(F)OC(F)(C(F)F)C(F)(F)F (centres undefined) — lower, 1.25
- FC(F)(F)COC(F)(F)F — lower, 0.66
- FC(F)(Br)Br [DIBROMODIFLUOROMETHANE] — lower, 1.59
- Fc1c(F)c(F)c(C(F)(F)F)c(F)c1F [PERFLUOROTOLUENE] — higher, 3.46
- FC(F)(F)C(F)(F)C(F)(F)Br — lower, 0.03
- FC(F)(F)C(F)(F)Br [BROMOPENTAFLUOROETHANE] — lower, 0.02
- FC(F)C(F)(F)C(F)(F)C(F)(F)F — lower, 0.12
- FC(F)(F)c1cc(C(F)(F)F)cc(C(F)(F)F)c1 — within 0.2 log units, 1.85
- FC(F)(F)C(F)(Cl)C(F)(Cl)C(F)(F)F (centres undefined) — lower, 1.04
- FC(F)(F)COCC(F)(F)F [FLUROTHYL] — higher, 2.81
- FC(F)(Cl)OC(F)(Cl)C(F)(F)F (centres undefined) — lower, 0.71
- CCCCCCCCC [NONANE] — higher, 2.8
- FC(F)(F)C(F)(F)C(F)(F)C(F)(F)Br — lower, 0.59
- FC(F)(Cl)C(F)(F)Cl [DICHLOROTETRAFLUOROETHANE] — lower, 0.41
- COC(F)(F)C(F)(C(F)(F)F)C(F)(F)F — lower, 0.67
- C1CCCCCC1 [CYCLOHEPTANE] — higher, 2.34
- FC(F)(Cl)OC(Cl)(Cl)C(F)(F)F — lower, 1.61
